Patent publication US10233201B2, “Class of HDAC inhibitors expands the renal progenitor cells population and improves the rate of recovery from acute kidney injury” (University of Pittsburgh—Of the Commonwealth System of …, priority 2012, dated 2019)

What was measured:
[1] = system: renal progenitor cells (lhx1a expression); experiment: In situ hybridization for lhx1a expression in 10-somite embryos (renal progenitor cell expansion); type: in vivo; as to lhx1a expansion class, 200 nM: key: effective (+); partially effective (+/−); ineffective (−); Analogs that killed all embryos at a given concentration before reaching 10 somites are listed as XX; as to lhx1a expansion class, 400 nM: key: effective (+); partially effective (+/−); ineffective (−); Analogs that killed all embryos at a given concentration before reaching 10 somites are listed as XX; as to lhx1a expansion class, 800 nM: key: effective (+); partially effective (+/−); ineffective (−); Analogs that killed all embryos at a given concentration before reaching 10 somites are listed as XX
Outline: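 Zebrafish embryos treated with compound, then colorimetric whole-mount in situ hybridization for lhx1a mRNA at 10-somite stage (hybridization 65 °C). Percent embryos with expanded kidney field counted manually; EC50 read as the 50% point of the plotted curve.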

[2] = system: CD1 mice, folic acid-induced injury; experiment: Folic acid-induced AKI; type: in vivo, mouse; conditions: daily IP 50 mg/ml in 30% PEG300 from 24 hrs after folic acid; after 15 days
Protocol: FIG. 41 are photomicrographs showing the results of an AKI model using folic acid-induced injury. Folic acid is administered to CD1 mice (n=6/group) intraperitoneally (IP) at 250 mg/ml in 0.3M NaHCO3. Compound UPHD-00022 was injected daily IP at […] in 30% PEG300 vehicle starting 24 hrs after folic acid treatment. Kidney tissue was stained using Trichrome and Sirus Red stained after 15 days. Blue in trichrome and the red in sirus red indicates fibrotic (scar) tissue.

[3] = system: mouse models of unilateral ureteral obstruction (UUO); experiment: Unilateral ureteral obstruction (UUO); type: in vivo; conditions: IP days 0 to 6, kidneys harvested at day 7
From the text: The model of unilateral ureteral obstruction generates progressive renal fibrosis. Surgically created UUO can be experimentally manipulated with respect to timing, severity, and duration, while reversal of the obstruction permits the study of recovery.
FIG. 47 represents the results of the testing of compounds UPHD-00022, UPHD-00025 (PTBA), UPHD-00029, UPHD-00036, and UPHD-00186, for their efficacy in mouse models of unilateral ureteral obstruction (UUO) as follows: in the UUO models, one ureter was ligated for 7 days and compounds were delivered via IP for days 0 to 6. At day 7 kidneys were harvested for Sirius red staining. […] Therefore, in the models tested, the only compound proven to be effective in all models and with significant delayed onset of treatment is UPHD-186.

[4] = lhx1a in situ hybridization, includes repeats* and recounts

COC(=O)CCCSc1ccc(OC)cc1 [UPHD-00022, methyl 4-[(4-methoxyphenyl)sulfanyl]butanoate]
lhx1a expansion class, 200 nM ([1]; 200 nM from 2 hpf): −
lhx1a expansion class, 400 nM ([1]; 400 nM from 2 hpf): +/−
lhx1a expansion class, 800 nM ([1]; 800 nM from 2 hpf): +
responders at 0.4 µM ([1]; Danio rerio, 400 nM, read-out: embryos with expanded lhx1a expression (% expansion)): 29%
responders at 0.8 µM ([1]; Danio rerio, 800 nM, read-out: embryos with expanded lhx1a expression (% expansion)): 57%
Expansion of Cells, 800 nM [1, 4]: 57%
Expansion of Cells, 1.5 μM [1, 4]: 91%
Expansion of Cells, 3 μM [1, 4]: 100%
renal fibrosis (Trichrome and Sirus Red) [2]: a reduction in fibrosis is seen
fibrosis (Sirius red) and expression of fibrosis markers in UUO kidney [3]: reduce both fibrosis and expression of fibrosis markers
